Assay results taken from ChEMBL document CHEMBL4622952, “Synthesis and biological evaluation of Schizandrin derivatives as tubulin polymerization inhibitors” (Bioorg Med Chem Lett, 2020).
pIC50: −log10 of the molar value. Activity calls are given as the source filed them. The rule behind the calls is not given here.

How the values were obtained:
[1] = Cell cycle arrest in human RKOP3 cells assessed as accumulation at G0/G1 phase at 1.5 uM measured after 24 hrs by propidium iodide staining based flow cytometry analysis (reference value: 59.59 %); format: functional
Tubulin (Homo sapiens) [2] = biological target: T1, Tubulin (Homo sapiens) (UniProt P68371+Q9H4B7+P0DPH7+P68366+Q13509+Q71U36+P04350+Q3ZCM7+P07437+P68363+Q9BQE3+Q6PEY2+Q13885+Q9BVA1+Q9BUF5); experiment: Inhibition of tubulin polymerization in human HeLa cells assessed as disruption of microtubule network at 10 uM measured after 24 hrs by immunofluorescence assay; format: cell-based
A549 = experiment: Antiproliferative activity against human A549 cells assessed as reduction in cell viability measured after 48 hrs by MTT assay; format: functional, cell-based
DU-145 = experiment: Antiproliferative activity against human DU145 cells assessed as reduction in cell viability measured after 48 hrs by MTT assay; format: functional, cell-based
HEK293 = experiment: Cytotoxicity against human HEK293 cells assessed as reduction in cell viability measured after 48 hrs by MTT assay; format: cell-based; details: Homo sapiens, HEK293, 48 h; read-out: IC50
[3] = Induction of apoptosis in human RKOP3 cells assessed as live cells at 1.5 uM measured after 48 hrs by annexinV-FITC/propidium iodide staining based flow cytometry analysis (reference value: 98.19 %); format: functional
[4] = Induction of apoptosis in human RKOP3 cells assessed as necrotic cells at 5 uM measured after 48 hrs by annexinV-FITC/propidium iodide staining based flow cytometry analysis (reference value: 0 %); format: functional
[5] = Induction of apoptosis in human RKOP3 cells assessed as necrotic cells at 3.3 uM measured after 48 hrs by annexinV-FITC/propidium iodide staining based flow cytometry analysis (reference value: 0 %); format: functional
[6] = Induction of apoptosis in human RKOP3 cells assessed as live cells at 5 uM measured after 48 hrs by annexinV-FITC/propidium iodide staining based flow cytometry analysis (reference value: 98.19 %); format: functional
[7] = Induction of apoptosis in human RKOP3 cells assessed as live cells at 3.3 uM measured after 48 hrs by annexinV-FITC/propidium iodide staining based flow cytometry analysis (reference value: 98.19 %); format: functional
[8] = Induction of apoptosis in human RKOP3 cells assessed as late apoptotic cells at 3.3 uM measured after 48 hrs by annexinV-FITC/propidium iodide staining based flow cytometry analysis (reference value: 0.01 %); format: functional
[9] = Induction of apoptosis in human RKOP3 cells assessed as early apoptotic cells at 1.5 uM measured after 48 hrs by annexinV-FITC/propidium iodide staining based flow cytometry analysis (reference value: 1.8 %); format: functional
Tubulin (Homo sapiens) [10] = biological target: T1, Tubulin (Homo sapiens); experiment: Inhibition of tubulin […] in human DU145 cells assessed as increase in soluble fraction of tubulin at […] measured after 24 hrs by Western blot analysis; format: cell-based; details: DU-145
[11] = (§1) Antiproliferative activity against human RKOP3 cells assessed as reduction in cell viability measured after 48 hrs by MTT assay; format: functional, cell-based
Homo sapiens = organism: Homo sapiens; experiment: as §1; format: functional, cell-based
[12] = Cell cycle arrest in human RKOP3 cells assessed as accumulation at G0/G1 phase at 3.3 uM measured after 24 hrs by propidium iodide staining based flow cytometry analysis (reference value: 59.59 %); format: functional
[13] = Induction of apoptosis in human RKOP3 cells assessed as early apoptotic cells at 5 uM measured after 48 hrs by annexinV-FITC/propidium iodide staining based flow cytometry analysis (reference value: 1.8 %); format: functional
[14] = Cell cycle arrest in human RKOP3 cells assessed as accumulation at G0/G1 phase at 5 uM measured after 24 hrs by propidium iodide staining based flow cytometry analysis (reference value: 59.59 %); format: functional
[15] = Induction of apoptosis in human RKOP3 cells assessed as early apoptotic cells at 3.3 uM measured after 48 hrs by annexinV-FITC/propidium iodide staining based flow cytometry analysis (reference value: 1.8 %); format: functional
[16] = Induction of apoptosis in human RKOP3 cells assessed as necrotic cells at 1.5 uM measured after 48 hrs by annexinV-FITC/propidium iodide staining based flow cytometry analysis (reference value: 0 %); format: functional
[17] = Induction of apoptosis in human RKOP3 cells assessed as late apoptotic cells at 1.5 uM measured after 48 hrs by annexinV-FITC/propidium iodide staining based flow cytometry analysis (reference value: 0.01 %); format: functional
[18] = Induction of apoptosis in human RKOP3 cells assessed as late apoptotic cells at 5 uM measured after 48 hrs by annexinV-FITC/propidium iodide staining based flow cytometry analysis (reference value: 0.01 %); format: functional
HeLa = experiment: Antiproliferative activity against human HeLa cells assessed as reduction in cell viability measured after 48 hrs by MTT assay; format: functional, cell-based

inhibition (Tubulin (Homo sapiens) [2]): Active
pIC50 (A549; A549, 48 h): 4.91
pIC50 (DU-145; DU-145, 48 h): 4.98
inhibition (Tubulin (Homo sapiens) [10]): Active
pIC50 (HeLa): 4.22
SMILES: CCCCCCCCCC(=O)O/N=C1\C=C2C[C@H](C)[C@@]3(C)Cc4cc(OC)c(OC)c(OC)c4C23C(OC)=C1OC (stereo partly specified)
Activity [1]: 60.68%
inhibition (A549): Dose-dependent effect
inhibition (DU-145): Dose-dependent effect
pIC50 (HEK293): 4.07
Activity [3]: 92.41%
Activity [4]: 0.04%
Activity [5]: 0.02%
Activity [6]: 76.06%
Activity [7]: 90.64%
Activity [8]: 0.29%
Activity [9]: 7.02%
pIC50 [11]: 5.47
inhibition (Homo sapiens): Dose-dependent effect
Activity [12]: 55.32%
Activity [13]: 21.6%
Activity [14]: 50.56%
Activity [15]: 9.05%
Activity [16]: 0%
Activity [17]: 0.57%
Activity [18]: 2.3%
inhibition (HeLa): Dose-dependent effect
